These results are taken from patent publication US8309064B2, “Skin care compositions comprising phenoxyalkyl amines” (Conopco, Inc., priority 2009, dated 2012).

The first test has as its system Melanoderm tissue equivalent model MEL-300 containing melanocytes. The test can be described thus: Inhibition of melanogenesis (total melanin content) in Melanoderm tissue equivalent model. Type of test: cell-based. The note with it: Melanocyte, 336 h; 5 μM in maintenance medium, 14 days, total melanin content, DMSO vehicle control. The protocol: Melanoderm tissue equivalent model MEL-300 (MatTek: Ashland, Mass.) containing melanocytes obtained from dark skin individuals were cultured as per supplier instructions. Components were added to the maintenance medium phase (no topical treatments) at a final concentration of 5 μM for 14 days at which time the experiment was terminated and the tissues assessed for melanin content. Medium and treatments were changed three times per week. DMSO was utilized as the vehicle control and all treatments were performed at least in duplicate.
For quantification of total melanin, each Melanoderm was placed into an individual Eppendorf tube (2 mL) into which 250 μL of Solvable™ tissue solubilizer (Packard Bioscience Co., Cat#6NE9100) was added. Each tube was vortexed and incubated at 60° C. for 18 hours. Each sample was then centrifuged (5-minutes at 13,000 RPMs) to remove any particulates. 100 or 200 μL of supernatant were transferred to a 96 well microtiter plate and the absorbance read at 490 nm. Total melanin content was calculated from a standard curve using synthetic melanin (Sigma Cat# M8631). Data was analyzed for significance using the t-test in Microsoft Excel to generate p-values (p-values less than 0.01 represent 99% confidence, p values of 0.05 represent 95% confidence both of which are statistically significant).
For the molecule `Cc1ccccc1OCCCCCCn1ccnc1` [5o, 1-(6-(o-tolyloxy)hexyl)-1H-imidazole], the inhibition at 5 µM came out at 22.1%.

Regarding `COCCNCCCCCCOc1ccccc1C` [5c, 6-(o-tolyloxy)-N-(2-methoxyethyl)hexan-1-amine], the inhibition at 5 µM stood at 31.7%.

Consider `CCNCCCCCCOc1cccc2ccccc12` [5gg, N-ethyl-6-(naphthalen-1-yloxy)hexan-1-amine], for which the inhibition at 5 µM came out at 35%. For `CN(C)CCCCCCOc1cccc2ccccc12` [5w, N,N-dimethyl-6-(naphthalen-4-yloxy)hexan-1-amine], the inhibition at 5 µM amounted to 51.3%. Still for that read-out and setting: the result for `Cc1ccccc1OCCCCCNCCO` [5d, 2-(5-(o-tolyloxy)pentylamino)ethanol] reads 20.8%; that for `CCc1ccccc1OCCCCCCN(C)C` [5r, 6-(2-ethylphenoxy)-N,N-dimethylhexan-1-amine], 32.9%. Regarding `CC(C)(C)NCCCCCCOc1ccccc1-c1ccccc1` [5dd, 6-(2-phenylphenoxy)-N-tert-butylhexan-1-amine], the inhibition at 5 µM came out at 54.8%.

Consider `Cc1ccccc1OCCCCCCN(CCO)CCO` [5m, 6-(o-tolyloxy)-N,N-di(2-hydroxyethyl)hexan-1-amine], for which the inhibition at 5 µM worked out at 32.9%. As for `Cc1ccc(OCCCCCCN(C)C)cc1` [5q, 6-(p-tolyoxy)-N,N-dimethylhexan-1-amine], the inhibition at 5 µM amounted to 41.5%. Still for that read-out and setting: the result for `OCCNCCCCCCOC1CCCCC1` [5ll, 2-(6-(cyclohexyloxy)hexylamino)ethanol] reads 25%; that for `CC(=O)N(CCO)CCCCCCOc1ccccc1C` [5jj, N-(6-(o-tolyloxy)hexyl)-N-(2-hydroxyethyl)acetamide], -5.2%; that for `CC(C)(C)NCCCCCCOc1cccc2ccccc12` [5ee, N-tert-butyl-6-(naphthalen-4-yloxy)hexan-1-amine], 35.9%. `CCNCCCCCCOc1ccccc1C` [5ff, 6-(o-tolyloxy)-N-ethylhexan-1-amine]: the inhibition at 5 µM was 18.1%. On the same count and under the same terms, the result for `Cc1ccc(OCCCCCCNC(C)(C)C)cc1` [5y, 6-(p-tolyloxy)-N-tert-butylhexan-1-amine] reads 47.5%. Same read-out and setting: the result for `CN(C)CCCCCCOc1ccccc1C(C)(C)C` [5u, 6-(2-tert-butylphenxoy)-N,N-dimethylhexan-1-amine] reads 49.6%; that for `OCCNCCCCCCOc1ccccc1` [5a, 2-(6-phenoxyhexylamino)ethanol], 21.9%. Same read-out and setting: the result for `Cc1cccc(OCCCCCCN(C)C)c1` [5p, 6-(m-tolyoxy)-N,N-dimethylhexan-1-amine] reads 37.1%; that for `Cc1ccccc1OCCCNCCO` [5f, 2-(3-(o-tolyloxy)propyalmino)ethanol], 10.7%. As to `CCNCCCCCCOc1ccccc1CC` [5hh, 6-(2-ethylphenoxy)-N-ethylhexan-1-amine], the inhibition at 5 µM was determined as 37.1%. For `Cc1ccccc1OCCCCNCCO` [5e, 2-(4-(o-tolyloxy)butylamino)ethanol], the inhibition at 5 µM amounted to 17.9%. On the same count and under the same terms, the result for `CC(C)c1ccccc1OCCCCCCN(C)C` [5t, 6-(2-isopropylphenoxy)-N,N-dimethylhexan-1-amine] reads 48.5%. The same measure, in the same setting: the result for `CC(C)(C)NCCCCCCOc1ccccc1C(C)(C)C` [5cc, 6-(2-tert-butylphenoxy)-N-tert-butylhexan-1-amine] reads 55.2%; that for `OCCNCCCCCCCc1ccccc1` [5kk, 2-(7-phenylheptylamino)ethanol], 32.7%. Consider `Cc1ccccc1OCCCCCCNCCO` [5b, 2-[[6-(2-methylphenoxy)hexyl]amino]-ethanol], for which the inhibition at 5 µM is 24.1%. The same measure, in the same setting: the result for `Cc1ccccc1OCCCCCCNC(C)(C)C` [5i, 6-(o-tolyloxy)-N-tert-butylhexan-1-amine] reads 23.2%.

For the molecule `CCN(CC)CCCCCCOc1ccccc1C` [5l, 6-(o-tolyloxy)-N,N-diethylhexan-1-amine], the inhibition at 5 µM was 45.6%. The same measure, in the same setting: the result for `CN(C)CCCCCCOc1ccccc1-c1ccccc1` [5v, 6-(2-phenylphenoxy)-N,N-dimethylhexan-1-amine] reads 56.7%. For the molecule `CC(C)c1ccccc1OCCCCCCNC(C)(C)C` [5bb, 6-(2-isopropylphenoxy)-N-tert-butylhexan-1-amine], the inhibition at 5 µM worked out at 44.2%.

`Cc1ccccc1OCCCCCCN(C)C` [5j, 6-(o-tolyloxy)-N,N-dimethylhexan-1-amine]: the inhibition at 5 µM was 24.2%.

Consider `Cc1ccccc1OCCCCCCN` [5ii, 6-(o-tolyloxy)hexan-1-amine], for which the inhibition at 5 µM was -6.9%.

For `CCN(C)CCCCCCOc1ccccc1C` [5k, 6-(o-tolyoxy)-N-ethyl-N-methylhexan-1-amine], the inhibition at 5 µM was determined as 23.6%. Still for that read-out and setting: the result for `Cc1ccccc1OCCCCCCN1CCOCC1` [5n] reads 42.1%; that for `Cc1ccccc1OCCNCCO` [5g, 2-(2-(o-tolyloxy)ethylamino)ethanol], 3.2%.

Still in this test, the particulars now being: Melanoderm MEL-300, 5 μM, 14 days.
Turning to `Cc1ccccc1OCCCCCNCCO` [5d, 2-(5-(o-tolyloxy)pentylamino)ethanol], the “melanogenesis inhibition (in words)” value is “highest melanogenesis inhibition in this set”.

For the molecule `Cc1ccccc1OCCCCCCNCCO` [5b, 2-[[6-(2-methylphenoxy)hexyl]amino]-ethanol], the “melanogenesis inhibition (in words)” value is “highest melanogenesis inhibition in this set”.

As usually defined, the inhibition is the drop in the measured response relative to a control, in per cent.
